Read-outs that look alike come from different tables or passages of the source.
Legend:
[1] = test system: culture filtrate prepared from an enteropathogenic strain of E. coli; type: in vivo; conditions: infant mice
[2] = test system: culture filtrate prepared from an enteropathogenic strain of E. coli; conditions: piglets; for Mean Scour Score ± SEM drug treated: score 0 - 3
[3] = test system: Heat stable E. coli enterotoxin from E. coli strain pl6; conditions: 100 µg/kg
[4] = 1 mg/kg p.o., 45 mins prior to challenge
[5] = 5 mg/kg p.o., 45 mins prior to challenge
[6] = 10 mg/kg p.o., 45 mins prior to challenge
[7] = 20 mg/kg p.o., 45 mins prior to challenge
[8] = 100 mg/kg p.o., 45 mins prior to challenge
[9] = 1 mg/kg po., duration of test 6 h
[10] = 1 mg/kg po., duration of test 12 h
[11] = 10 mg/kg po., duration of test 12 h
[12] = 2 x 5 mg/kg po., duration of test 12 h

Structure (SMILES): C[C@H](N)[C@H](O)c1cccc(O)c1 [Metoraminol]
- % Inhibition ([1]; 200 mg/kg p.o., 45 mins prior to challenge): 45%

Structure (SMILES): NC[C@H](O)c1ccc(O)c(O)c1 [Noradrenaline]
- % Inhibition ([1]; 10 mg/kg p.o., in 6mM ascorbate): 40%

Structure (SMILES): CNCC(O)c1ccc(O)c(O)c1.O=C(O)C(O)C(O)C(=O)O (stereo not shown) [Adrenaline Bitartrate]
- % Inhibition [1, 4]: 37%
- % Inhibition [1, 5]: 36%
- % Inhibition [1, 6]: 58%
- % Inhibition [1, 7]: 70%
- % Inhibition [1, 8]: 96%
- % Inhibition of Scour [2, 9]: 11%
- Mean Scour Score ± SEM drug treated [2, 9]: 2.0 ± 0.2
- % Inhibition of Scour [2, 10]: 16%
- Mean Scour Score ± SEM drug treated [2, 10]: 1.8 ± 0.1
- % Inhibition of Scour [2, 11]: 98%
- Mean Scour Score ± SEM drug treated [2, 11]: 0 ± 0
- % Inhibition of Scour [2, 12]: 96%
- Mean Scour Score ± SEM drug treated [2, 12]: 0.1 ± 0.1

Structure (SMILES): CNCC(O)c1ccc(O)c(O)c1 (stereo not shown) [Adrenaline]
- Secretion/(ml/30 min) (mean ± SEM [n=10) ([3]; time 0-30 min after toxin (before drug; drug administered 30 min after toxin)): 31 ± 3 ml/30 min
- Secretion/(ml/30 min) (mean ± SEM [n=10) ([3]; time 30-60 min after toxin): 10 ± 1 ml/30 min
- Secretion/(ml/30 min) (mean ± SEM [n=10) ([3]; time 60-90 min after toxin): 8 ± 2 ml/30 min
- Secretion/(ml/30 min) (mean ± SEM [n=10) ([3]; time 90-120 min after toxin): 6 ± 2 ml/30 min
- Secretion/(ml/30 min) (mean ± SEM [n=10) ([3]; time 120-150 min after toxin): 8 ± 3 ml/30 min
- Secretion/(ml/30 min) (mean ± SEM [n=10) ([3]; time 150-180 min after toxin): 7 ± 2 ml/30 min
- Secretion/(ml/30 min) (mean ± SEM [n=10) ([3]; time -30-0 min after toxin (before toxin and drug)): 3 ± 1 ml/30 min
- % Inhibition ([1]; 0.5 mg/kg p.o., 45 mins prior to challenge): 8%
- % Inhibition [1, 4]: 18%
- % Inhibition [1, 5]: 54%
- % Inhibition [1, 6]: 54%
- % Inhibition [1, 7]: 69%
- % Inhibition [1, 8]: 101%
